For orientation: IC50 means the midpoint of a concentration-inhibition curve. The low end stands for greater potency in that assay, the high end for weaker potency in that assay.

The source of these data is ChEMBL document CHEMBL1143567, “Hierarchical database screenings for HIV-1 reverse transcriptase using a pharmacophore model, rigid docking, solvation docking, and MM-PB/SA” (J Med Chem, 2005).

This test relates to Human immunodeficiency virus 1. Description: Concentration required to inhibit 50% viral production of human immunodeficiency virus type 1 (HIV-1-IIIB). Type of test: functional, organism-based.
`O=C(O)C1=CC(=C(c2ccc(O)c(C(=O)O)c2)c2ccc(O)c(C(=O)O)c2)C=CC1=O` [AURINTRICARBOXYLIC ACID] gave an IC50 of 5000 nM.
Consider `CC(=O)c1ccc(C)cc1NC(C(N)=O)c1c(Cl)cccc1Cl` (stereo not given) [LOVIRIDE], for which the IC50 was found to be 100 nM.
The compound `O=C1Nc2ccc(Cl)cc2[C@@](C#CC2CC2)(C(F)(F)F)N1` had an IC50 of 0.36 nM.
Compound `Cc1cc(C)cc(Cc2c(C(C)C)c(=O)[nH]c(=O)n2COCCO)c1` returned an IC50 of 2.7 nM.
With `CC(=O)c1ccccc1NC(C(N)=O)c1c(Cl)cccc1Cl` (stereo not given), the IC50 amounted to 26 nM. This IC50 is about 9.6-fold higher than that of the compound before.
The compound `Fc1cccc(Cl)c1CCNC(=S)Nc1nccs1` showed an IC50 of 50 nM.
Turning to `S=C(NCCc1ccccn1)Nc1ccc(Br)cn1` [TROVIRDINE], the IC50 came out at 20 nM.
As for `NC(=O)C(Nc1ccccc1[N+](=O)[O-])c1c(Cl)cccc1Cl` (stereo not given), inhibition was half-maximal at 33 nM (IC50).
For `O=C1c2ccccc2C2(c3ccccc3)SCCN12` (stereo not given), the IC50 was 16 nM.
In the case of `S=C(NCCc1ccccc1)Nc1nccs1` it was 1300 nM; in that of `CC1Oc2c3c(c4c(-c5ccccc5)cc(=O)oc4c2C(O)C1C)OC(C)(C)C=C3` (stereo not given), 1400 nM.
As for `CC(=O)c1ccc(C)cc1NC(C(N)=O)c1c(Br)cccc1Br` (stereo not given), the IC50 amounted to 420 nM.
Consider `CCOCn1c(Cc2ccccc2)c(C(C)C)c(=O)[nH]c1=O` [EMIVIRINE], for which the half-maximal inhibitory concentration (IC50) came out at 8 nM.
Take `COc1ccc2c(c1)N(C(=O)OC(C)C)C(CSC)C(S)=N2` (stereo not given): the IC50 was 6 nM.
For the compound `Cc1ccnc2c1NC(=O)c1cccnc1N2C1CC1` [NEVIRAPINE], half-maximal inhibition (IC50) was put at 200 nM.
`Cc1c(Sc2ccccc2)n(COCCO)c(=O)[nH]c1=O` [HEPT] came in with an IC50 of 7000 nM. Against the preceding compound, the IC50 is about 35-fold higher.
With `C=CCN1Cc2cccc3[nH]c(=O)n(c23)CC1C` (stereo not given), the 50% inhibitory concentration (IC50) came to 62000 nM. This IC50 is about 8.9-fold higher than that of the compound before.
Regarding `CCCCCC=C(c1cc(Br)c(OC)c(C(=O)OC)c1)c1cc(Br)c(OC)c(C(=O)OC)c1`, the midpoint of inhibition, the IC50, lay at 16000 nM.
Then `CCC1=CC(NCc2nc3c(C)ccc(C)c3o2)C(=O)N=C1C` (stereo not given), with 50 nM; and `CC(C)OC(=O)c1cc(NC(=S)OC(C)C)ccc1Cl`, with 29 nM.
In the case of `CCN1c2ncccc2-c2ncc(C)n2-c2ccc(OC)nc21` it was 190 nM; in that of `O=C1Nc2ccc(Cl)cc2C(/C=C/C2CC2)(C(F)(F)F)N1` (stereo not given), 0.4 nM; in that of `CC(C)Nc1cccnc1N1CCN(C(=O)c2cc3cc(NS(C)(=O)=O)ccc3[nH]2)CC1` [DELAVIRDINE], 1100 nM.
Take `CC(C)c1c(Cc2ccccc2)n(COCc2ccccc2)c(=O)[nH]c1=O`: the IC50 is 6 nM.
In the case of `Cc1c(O)nc(OC2CCCCC2)nc1Cc1ccccc1`, the IC50 stood at 4700 nM.
In turn, `CC(C)=CCN1Cc2cc(Cl)cc3nc(S)n(c23)CC1C` (stereo not given) [TIBO] came in with an IC50 of 33 nM. This IC50 is about 140-fold lower than that of the compound before.
With `O=C1Nc2ccc(Cl)cc2[C@@](C#CC2CC2)(C(F)(F)F)O1` [EFAVIRENZ], the half-inhibitory concentration (IC50) came out at 2.93 nM.
In turn, `CC(C)=CCN1Cc2c(Cl)ccc3[nH]c(=S)n(c23)C[C@@H]1C` [TIVIRAPINE] yielded an IC50 of 3 nM. This IC50 and that of the compound before are within 1.5-fold of each other.
On to `Cc1c(Sc2ccccc2)n(COCCO)c(=S)[nH]c1=O`, for which the IC50 was 1600 nM.
`CCN1c2cc([N+](=O)[O-])ccc2N(C)C(=O)c2cccnc21` had a concentration for half-maximal inhibition (IC50) of 400 nM.
Compound `CN1C(=O)c2ccccc2C1(N)c1ccccc1` (stereo not given) yielded an IC50 of 10000 nM. Against the preceding compound, the IC50 is about 25-fold higher.
In the case of `CC(C)=CCOc1cc(NC(=S)c2ccoc2C)ccc1Cl` [UC 781] it was 9 nM.
With `CC1=C(C(=O)Nc2ccc(Cl)c(C(=O)OC(C)C)c2)SCCO1`, the IC50 is 42 nM. This IC50 is about 4.7-fold higher than that of the compound before.
Consider `CC(C)c1nc(COC(N)=O)n(Cc2ccncc2)c1Sc1cc(Cl)cc(Cl)c1` [CAPRAVIRINE], for which the half-inhibitory concentration (IC50) is 3.1 nM.
As for `Fc1cccc(F)c1CC/N=C(\S)Nc1ccc(Br)cn1`, the IC50 was 10 nM.
